{"source": "patent US20030073705A1", "about": "“Method of treatment” (priority 2001, published 2003)", "key": {"[1]": {"tested_on": "patients with Type 2 diabetes and nephropathy", "assay": "Triple-blind, randomized, placebo-controlled study: primary composite endpoint (doubling of serum creatinine, end stage renal disease or death) and components", "assay_type": "in vivo, human", "description": "(§1) The study involved male and female patients ranging in age from 31 to 70 years diagnosed with Type 2 diabetes and nephropathy; the latter defined as two urine albumin:creatinine ratios from a first morning specimen >300 mg/g (34 mg/mmol) (or a 24-hr urine protein >=500 mg (0.5 g/day)) and two serum creatinine values between 1.3 and 3.0 mg/dL (115 and 265 μmol/L) (lower limit of 1.5 mg/dL (133 μmol/L)for males >60 kg). […] Journal of the Renin Angiotensin Aldosterone System 2000;1(4):328-35. Patients were excluded from the study if diagnosed with Type 1 diabetes or nondiabetic renal disease, including renal artery stenosis. Patients with a history of heart failure, myocardial infarction or coronary artery bypass grafting within 1 month, cerebral vascular accident or percutaneous transluminal coronary angioplasty within 6 months or transient ischemic attacks within 1 year prior to enrollment were excluded.\n(§2) During the 6-week screening phase, hypertensive patients continued to take their standard antihypertensive therapy. However, in those patients taking angiotensin I converting enzyme inhibitors or angiotensin II receptor antagonists, these agents were discontinued at the beginning of the screening phase and replaced by alternative open-label therapy at the investigator's discretion (diuretic, calcium-channel antagonist, α- or β-blocker, and/or centrally acting agent). […] After an additional 8 weeks, further antihypertensive therapy with agents described above (exclusive of angiotensin I converting enzyme inhibitors or angiotensin II receptor antagonists), were added or increased in dosage to achieve the goal trough sitting blood pressure.\n(§3) Throughout the study, patients received standard medical care for treatment of diabetes, including routine measurements of HbAlc and fasting serum glucose concentrations. Study visits were scheduled every 3 months or more frequently if necessary for monitoring trough sitting blood pressure control, changes in laboratory measurements, adverse experiences and endpoints. Patients who discontinued early from blinded study therapy were followed every 3 months until study end for primary and secondary endpoints, blood pressure control and laboratory measurements. Those who could not return for clinic visits were contacted by telephone for endpoints of dialysis, renal transplantation or death.\n(§4) The primary efficacy parameter was a composite endpoint of time to the first event of doubling of serum creatinine concentration, end stage renal disease, or death. End stage renal disease was defined as the need for chronic dialysis or renal transplantation. The prespecified secondary endpoint, cardiovascular morbidity and mortality, was a composite of myocardial infarction, stroke, hospitalization for heart failure or unstable angina, coronary or peripheral revascularization, and death from cardiovascular-related causes. Analyses of the components of both the primary and secondary composite endpoints also were prespecified. Other secondary endpoints included progression of renal disease as assessed by the slope of the reciprocal of serum creatinine concentration and changes in proteinuria. (See Mitch W E, Walser M, Buffington G A, Lemann J Jr. A simple method of estimating progression of chronic renal failure. Lancet 1976;2:1326-8.) An independent, blinded endpoint committee adjudicated all potential clinical endpoints occurring from the time of randomization until study termination.\n(§5) A supportive, per-protocol analysis excluded patients who violated the inclusion/exclusion criteria, and censored patients 14 days after permanent discontinuation of study medication."}, "[2]": {"tested_on": "patients with Type 2 diabetes and nephropathy", "assay": "Trough sitting blood pressure during the study", "assay_type": "in vivo, human", "description": "The results reported here represent a mean follow-up time of 3.4 years.\nas §1, §2\nas §3, with “death. […]” for “death.”"}, "[3]": {"tested_on": "patients with Type 2 diabetes and nephropathy", "assay": "Secondary endpoint: cardiovascular morbidity and mortality and components", "assay_type": "in vivo, human", "description": "as §1, §2, §4, §5"}, "[4]": {"tested_on": "patients with Type 2 diabetes and nephropathy", "assay": "Secondary endpoints: proteinuria and progression of renal disease (slope of reciprocal of serum creatinine)", "assay_type": "in vivo, human", "settings": "on-treatment; p=0.01 versus placebo", "description": "as §1\nDuring the 6-week screening phase, hypertensive patients continued to take their standard antihypertensive therapy. […]\nThe primary efficacy parameter was a composite endpoint of time to the first event of doubling of serum creatinine concentration, end stage renal disease, or death. […] Other secondary endpoints included progression of renal disease as assessed by the slope of the reciprocal of serum creatinine concentration and changes in proteinuria. […]"}, "[5]": {"tested_on": "patients with Type 2 diabetes and nephropathy", "assay": "Discontinuation from study therapy and adverse experiences", "settings": "n = 751", "description": "as §1, §2, §3"}, "[6]": {"settings": "intention-to-treat, n = 751, mean follow-up 3.4 years"}, "[7]": {"settings": "losartan relative to placebo, p=0.010"}}, "data": [{"substance": "2-N-butyl-4-chloro-5-hydroxymethyl-1-[(2′-(1H-tetrazol-5-yl)biphenyl-4-yl)-methyl]imidazole, potassium salt [Losartan]", "values": [{"measurement": "Patients reaching primary composite endpoint (number)", "setting": "[1]; intention-to-treat analysis", "value": 327, "unit": "patients"}, {"measurement": "Patients reaching primary composite endpoint (percent)", "setting": "[1]; intention-to-treat analysis", "value": 43.5, "unit": "%"}, {"measurement": "Primary composite endpoint, event rate", "setting": "[1]; intention-to-treat analysis", "value": "15.9 /100 patient years of follow-up"}, {"measurement": "Doubling of sCr, ESRD or Death (composite primary endpoint), patients", "setting": "[1]; intention-to-treat, losartan 50 to 100 mg once daily +CT, n = 751, mean follow-up 3.4 years", "value": "327 (43.5) n (%)"}, {"measurement": "Death, patients", "setting": "[1]; [6]", "value": "158 (21.0) n (%)"}, {"measurement": "Doubling of sCr or ESRD, patients", "setting": "[1]; [6]", "value": "226 (30.1) n (%)"}, {"measurement": "Doubling of sCr, patients", "setting": "[1]; [6]", "value": "162 (21.6) n (%)"}, {"measurement": "ESRD or Death, patients", "setting": "[1]; [6]", "value": "255 (34.0) n (%)"}, {"measurement": "ESRD, patients", "setting": "[1]; [6]", "value": "147 (19.6) n (%)"}, {"measurement": "Risk Reduction, Doubling of sCr, ESRD or Death (composite primary endpoint)", "setting": "[1]; losartan relative to placebo, intention-to-treat, Cox model, p=0.024", "value": 16, "unit": "%"}, {"measurement": "Risk Reduction, ESRD", "setting": "[1]; losartan relative to placebo, p=0.002", "value": 28, "unit": "%"}, {"measurement": "Risk Reduction, Doubling of sCr", "setting": "[1]; losartan relative to placebo, p=0.006", "value": 25, "unit": "%"}, {"measurement": "Risk Reduction, Doubling of sCr or ESRD", "setting": "[1]; [7]", "value": 21, "unit": "%"}, {"measurement": "Risk Reduction, ESRD or Death", "setting": "[1]; [7]", "value": 20, "unit": "%"}, {"measurement": "Risk Reduction, Death", "setting": "[1]; losartan relative to placebo, p=0.882", "value": "−2", "unit": "%"}, {"measurement": "Decrease in risk of primary composite endpoint after correcting for blood pressure", "setting": "[1]; mean arterial pressure as time-varying covariate, p=0.034", "value": 15, "unit": "%"}, {"measurement": "Risk reduction in primary composite endpoint, per protocol analysis", "setting": "[1]; patients who remained on treatment throughout the protocol, p=0.008", "value": 22, "unit": "%"}, {"measurement": "Effect in pre-defined subgroups (primary composite, ESRD, ESRD or death)", "setting": "[1]; patients with baseline serum creatinine greater than 2.0 mg/dL and urine albumin:creatinine ratio greater than 2000 mg/g", "value": "particularly beneficial"}, {"measurement": "Trough diastolic blood pressure", "setting": "[2]; at 1 year, average", "value": 78, "unit": "mmHg"}, {"measurement": "Trough systolic blood pressure", "setting": "[2]; at 1 year, average", "value": 146, "unit": "mmHg"}, {"measurement": "Mean arterial pressure", "setting": "[2]; at 1 year, p<0.001 versus placebo", "value": 100.9, "unit": "mmHg"}, {"measurement": "Pulse pressure", "setting": "[2]; at 1 year, p=0.047 versus placebo", "value": 67.8, "unit": "mmHg"}, {"measurement": "Trough diastolic blood pressure", "setting": "[2]; at study end, average", "value": 74, "unit": "mmHg"}, {"measurement": "Trough systolic blood pressure", "setting": "[2]; at study end, average", "value": 140, "unit": "mmHg"}, {"measurement": "Mean arterial pressure", "setting": "[2]; at study end, p=0.59 versus placebo", "value": 95.9, "unit": "mmHg"}, {"measurement": "Pulse pressure", "setting": "[2]; at study end, p=0.77 versus placebo", "value": 66.7, "unit": "mmHg"}, {"measurement": "Trough diastolic blood pressure", "setting": "[2]; at year 2, average", "value": 77, "unit": "mmHg"}, {"measurement": "Trough systolic blood pressure", "setting": "[2]; at year 2, average", "value": 143, "unit": "mmHg"}, {"measurement": "Pulse pressure", "setting": "[2]; at year 2, p=0.37 versus placebo", "value": 66.2, "unit": "mmHg"}, {"measurement": "Mean arterial pressure", "setting": "[2]; at year 2, p=0.38 versus placebo", "value": 99.1, "unit": "mmHg"}, {"measurement": "Composite endpoint of cardiovascular morbidity and mortality, difference versus placebo plus conventional therapy", "setting": "[3]; losartan plus conventional therapy", "value": "no significant difference"}, {"measurement": "Patients with myocardial infarction", "setting": "[3]; mean follow-up 3.4 years", "value": 50, "unit": "patients"}, {"measurement": "Patients with hospitalization for heart failure", "setting": "[3]; time to first hospitalization, mean follow-up 3.4 years", "value": 89, "unit": "patients"}, {"measurement": "Risk reduction, hospitalization for heart failure", "setting": "[3]; versus placebo, p=0.005", "value": 32, "unit": "%"}, {"measurement": "Risk reduction, myocardial infarction", "setting": "[3]; versus placebo, p=0.08, did not reach statistical significance", "value": 28, "unit": "%"}, {"measurement": "Risk reduction, fatal or non-fatal cardiovascular event", "setting": "[3]; versus placebo, p=0.26", "value": 9, "unit": "%"}, {"measurement": "Rate of decline in renal function, median slope of reciprocal of serum creatinine concentration", "setting": "[4]", "value": "−0.056", "unit": "dl/mg/yr"}, {"measurement": "Discontinued for Any Reason", "setting": "[5]; discontinuation from study therapy", "value": "341 (45.4) n (%)"}, {"measurement": "Clinical adverse experience causing discontinuation: End Stage Renal Disease", "setting": "[5]", "value": "16 (2.1) n (%)"}, {"measurement": "Clinical adverse experience causing discontinuation: Heart Failure", "setting": "[5]", "value": "23 (3.0) n (%)"}, {"measurement": "Clinical adverse experience causing discontinuation: Myocardial Infarction", "setting": "[5]", "value": "7 (0.9) n (%)"}, {"measurement": "Clinical adverse experience causing discontinuation: Stroke", "setting": "[5]", "value": "9 (1.2) n (%)"}, {"measurement": "Clinical adverse experience causing discontinuation: Worsening renal insufficiency", "setting": "[5]", "value": "8 (1.1) n (%)"}, {"measurement": "Discontinuation from study therapy: Clinical Adverse Experience", "setting": "[5]", "value": "128 (17.0) n (%)"}, {"measurement": "Discontinuation from study therapy: Deaths", "setting": "[5]", "value": "65 (8.7) n (%)"}, {"measurement": "Discontinuation from study therapy: Laboratory Adverse Experience", "setting": "[5]", "value": "21 (2.8) n (%)"}, {"measurement": "Laboratory adverse experience causing discontinuation: Hyperkalemia", "setting": "[5]", "value": "9 (1.2) n (%)"}]}]}
